Common to all, as to assay type: functional
Experiment [1] can be described thus: Cytotoxicity against human MCF7 cells assessed as cell growth inhibition after 48 hrs by SRB assay. Particulars: MCF7, 48 h; for CC50: read-out: LC50 (the source's name).
Experiment [2] in a line: Cytotoxicity against human UACC62 cells assessed as cell growth inhibition after 48 hrs by SRB assay. Conditions: UACC-62, 48 h.
Experiment [3] can be described thus: Cytotoxicity against human TK10 cells assessed as cell growth inhibition after 48 hrs by SRB assay. Conditions: TK-10, 48 h; for CC50: read-out: LC50 (the source's name). A general note: In SRB staining, fixed cells bind dye roughly in proportion to their protein.
In a further experiment the test system is UACC-62. Nature of the experiment: Potency index, ratio of etoposide TGI to compound TGI for human UACC62 cells.

In the case of `O=c1oc2ccc(Cl)cc2c2oc3c(F)c(O)c(O)cc3c12`, in experiment [1], the 50% growth inhibitory concentration (GI50) (commonly the concentration giving 50% growth inhibition) was found to be 70.3 µM; the TGI (as a rule, the concentration at which net growth stops) was more than 100 µM; the CC50 was more than 100 µM. In experiment [2], the 50% growth inhibitory concentration (GI50) is 83.7 µM, the LC50 (concentration giving 50% net cell kill) is more than 100 µM and the total growth inhibition concentration (TGI) is more than 100 µM. Also, in experiment [3], the concentration for 50% growth inhibition (GI50) is more than 100 µM, the TGI was more than 100 µM and the CC50 was more than 100 µM.

Take `Cc1cc2oc(=O)c3c4cc(O)c(O)c(C)c4oc3c2cc1C`: in experiment [1], the 50% growth inhibitory concentration (GI50) was found to be 87.3 µM, the TGI is more than 100 µM and the CC50 is more than 100 µM. Moreover, in experiment [2], the GI50 stood at 67.6 µM, the LC50 (concentration giving 50% net cell kill) is more than 100 µM and the TGI was more than 100 µM. In experiment [3], the GI50 was more than 100 µM, the concentration for total growth inhibition (TGI) was more than 100 µM and the CC50 was more than 100 µM.

`O=c1oc2ccccc2c2oc3cc(O)c(O)cc3c12`: in experiment [1], the GI50 amounted to 39.4 µM, the TGI was 77.3 µM and the CC50 was more than 100 µM. Further, in experiment [2], the concentration for 50% growth inhibition (GI50) is 33.3 µM, the LC50 (concentration giving 50% net cell kill) was 90.6 µM and the concentration for total growth inhibition (TGI) stood at 61.9 µM. Further, in experiment [3], the GI50 was 28.7 µM, the total growth inhibition concentration (TGI) came out at 88.4 µM and the CC50 is more than 100 µM.

As for `Oc1cccc(F)c1O`, in experiment [1], the GI50 came to 57.6 µM, the TGI was more than 100 µM and the CC50 was more than 100 µM. Moreover, in experiment [2], the GI50 was 35.2 µM and the total growth inhibition concentration (TGI) was 78.4 µM. Moreover, in experiment [3], the GI50 is 84.7 µM, the total growth inhibition concentration (TGI) is more than 100 µM and the CC50 was more than 100 µM.

For the compound `Cc1cc2oc(=O)c3c4cc(O)c(O)cc4oc3c2cc1C`, in experiment [1], the GI50 was determined as 46 µM, the TGI stood at 86.3 µM and the CC50 is more than 100 µM. Moreover, in experiment [2], the 50% growth inhibitory concentration (GI50) turned out to be 38.3 µM, the LC50 (concentration giving 50% net cell kill) is more than 100 µM and the TGI was found to be 80.1 µM. Besides, in experiment [3], the GI50 was 53.3 µM, the total growth inhibition concentration (TGI) is more than 100 µM and the CC50 is more than 100 µM.

Regarding `COc1c(O)c(O)cc2c1oc1c3ccccc3oc(=O)c21`, in experiment [1], the GI50 is 87.3 µM, the total growth inhibition concentration (TGI) is more than 100 µM and the CC50 is more than 100 µM. Also, in experiment [2], the concentration for 50% growth inhibition (GI50) turned out to be 67.6 µM, the LC50 (concentration giving 50% net cell kill) was more than 100 µM and the concentration for total growth inhibition (TGI) was more than 100 µM. In experiment [3], the concentration for 50% growth inhibition (GI50) is more than 100 µM, the total growth inhibition concentration (TGI) is more than 100 µM and the CC50 was more than 100 µM.

In the case of `Oc1ccccc1O` [CATECHOL], in experiment [1], the GI50 stood at 52.4 µM, the TGI is more than 100 µM and the CC50 was more than 100 µM. For the same compound, in experiment [2], the GI50 is 45 µM and the TGI is more than 100 µM. Further, in experiment [3], the GI50 was 68 µM, the TGI was more than 100 µM and the CC50 is more than 100 µM.

On to `COc1cc([C@@H]2c3cc4c(cc3[C@@H](O[C@@H]3O[C@@H]5CO[C@@H](C)O[C@H]5[C@H](O)[C@H]3O)[C@H]3COC(=O)[C@H]23)OCO4)cc(OC)c1O` [ETOPOSIDE], for which, in experiment [1], the concentration for 50% growth inhibition (GI50) turned out to be 0.56 µM, the TGI was more than 100 µM and the CC50 is more than 100 µM. Besides, the GI50 in experiment [2] came to 0.89 µM. In addition, the CC50 in experiment [3] is more than 100 µM.

Consider `O=c1oc2ccc(Cl)cc2c2oc3cc(O)c(O)cc3c12`, for which, in experiment [1], the GI50 worked out at 47.5 µM, the TGI turned out to be 89.8 µM and the CC50 was more than 100 µM. In experiment [2], the GI50 is 36.3 µM, the LC50 (concentration giving 50% net cell kill) was more than 100 µM and the TGI worked out at 68.6 µM. Further, in experiment [3], the GI50 is 53.4 µM, the TGI was more than 100 µM and the CC50 was more than 100 µM.

As to `Cc1c(O)c(O)cc2c1oc1c3ccccc3oc(=O)c21`, in experiment [1], the GI50 was found to be 54.9 µM, the TGI was more than 100 µM and the CC50 was more than 100 µM. Moreover, in experiment [2], the concentration for 50% growth inhibition (GI50) was found to be 55.6 µM, the LC50 (concentration giving 50% net cell kill) is more than 100 µM and the total growth inhibition concentration (TGI) is more than 100 µM. Also, in experiment [3], the GI50 is more than 100 µM, the TGI is more than 100 µM and the CC50 was more than 100 µM.

With `O=c1cc(O)c2ccccc2o1` [4-HYDROXYCOUMARINS], the GI50 is 95.3 µM in experiment [1], 83.6 µM in experiment [2] and more than 100 µM in experiment [3]. For the same compound, the TGI in experiment [1], in experiment [2] and in experiment [3] was more than 100 µM in each case. In addition, the CC50 in experiment [1] and in experiment [3] was more than 100 µM throughout.

`COc1cccc(O)c1O` [3-METHOXYCATECHOL]: in experiment [1], the GI50 came to 27.6 µM, the TGI was 60.7 µM and the CC50 was 93.8 µM. In experiment [2], the GI50 worked out at 23.6 µM and the total growth inhibition concentration (TGI) is 50.3 µM. In experiment [3], the concentration for 50% growth inhibition (GI50) turned out to be 51.6 µM, the TGI turned out to be 97 µM and the CC50 is more than 100 µM.

In the case of `COc1c(O)c(O)cc2c1oc1c3cc(C)ccc3oc(=O)c21`, in experiment [1], the GI50 was found to be 65.8 µM, the total growth inhibition concentration (TGI) was more than 100 µM and the CC50 was more than 100 µM. In addition, in experiment [2], the GI50 was determined as 49.9 µM, the LC50 (concentration giving 50% net cell kill) was more than 100 µM and the total growth inhibition concentration (TGI) is more than 100 µM. Also, in experiment [3], the GI50 worked out at 88.6 µM, the TGI was more than 100 µM and the CC50 is more than 100 µM.

For `Cc1ccc2oc(=O)c3c4cc(O)c(O)c(C)c4oc3c2c1`, in experiment [1], the 50% growth inhibitory concentration (GI50) turned out to be 7.96 µM, the TGI came out at 78.2 µM and the CC50 is more than 100 µM. For the same compound, in experiment [2], the GI50 was 5.35 µM, the LC50 (concentration giving 50% net cell kill) is 89.9 µM and the concentration for total growth inhibition (TGI) was determined as 9.82 µM. For the same compound, in the experiment with UACC-62, the Ratio is 5. Besides, in experiment [3], the GI50 stood at 48.8 µM, the total growth inhibition concentration (TGI) was more than 100 µM and the CC50 was more than 100 µM.

Take `COc1c(O)c(O)cc2c1oc1c3cc(C)c(C)cc3oc(=O)c21`: in experiment [1], the GI50 came out at 29.5 µM, the TGI worked out at 95.4 µM and the CC50 was more than 100 µM. In experiment [2], the GI50 came to 18.1 µM, the LC50 (concentration giving 50% net cell kill) came to 75.3 µM and the TGI was determined as 46.7 µM. In experiment [3], the GI50 came out at 26.8 µM, the TGI was 66.4 µM and the CC50 was more than 100 µM.

Turning to `Cc1cc2oc(=O)c3c4cc(O)c(O)c(F)c4oc3c2cc1C`, in experiment [1], the GI50 is 77.7 µM, the total growth inhibition concentration (TGI) was more than 100 µM and the CC50 was more than 100 µM. Also, in experiment [2], the GI50 stood at 91.8 µM, the LC50 (concentration giving 50% net cell kill) was more than 100 µM and the TGI was more than 100 µM. Moreover, in experiment [3], the concentration for 50% growth inhibition (GI50) is more than 100 µM, the TGI is more than 100 µM and the CC50 was more than 100 µM.

Regarding `Cc1c(O)c(O)cc2c1oc1c3cc(Cl)ccc3oc(=O)c21`, in experiment [1], the 50% growth inhibitory concentration (GI50) stood at 63.1 µM, the TGI was more than 100 µM and the CC50 was more than 100 µM. In experiment [2], the concentration for 50% growth inhibition (GI50) was 39.7 µM, the LC50 (concentration giving 50% net cell kill) was more than 100 µM and the TGI stood at 73.6 µM. Moreover, in experiment [3], the GI50 came out at 58.1 µM, the total growth inhibition concentration (TGI) is more than 100 µM and the CC50 was more than 100 µM.

In the case of `Cc1ccc2oc(=O)c3c4cc(O)c(O)cc4oc3c2c1`, in experiment [1], the GI50 came to 54.7 µM, the TGI was more than 100 µM and the CC50 is more than 100 µM. In experiment [2], the GI50 worked out at 11.2 µM, the LC50 (concentration giving 50% net cell kill) came to 90.7 µM and the total growth inhibition concentration (TGI) turned out to be 50.9 µM. Also, in experiment [3], the 50% growth inhibitory concentration (GI50) came out at 52 µM, the TGI was more than 100 µM and the CC50 was more than 100 µM.

As for `O=c1oc2ccccc2c2oc3c(F)c(O)c(O)cc3c12`, in experiment [1], the GI50 was found to be 53.1 µM, the TGI was more than 100 µM and the CC50 was more than 100 µM. For the same compound, in experiment [2], the 50% growth inhibitory concentration (GI50) came out at 67.6 µM, the LC50 (concentration giving 50% net cell kill) is more than 100 µM and the TGI is more than 100 µM. In addition, in experiment [3], the concentration for 50% growth inhibition (GI50) is more than 100 µM, the TGI is more than 100 µM and the CC50 is more than 100 µM.

In the case of `Cc1ccc2oc(=O)cc(O)c2c1`, in experiment [1], the GI50 was found to be 84.4 µM, the concentration for total growth inhibition (TGI) is more than 100 µM and the CC50 was more than 100 µM. In experiment [2], the 50% growth inhibitory concentration (GI50) amounted to 84.7 µM and the concentration for total growth inhibition (TGI) is more than 100 µM. In addition, in experiment [3], the GI50 was more than 100 µM, the TGI is more than 100 µM and the CC50 is more than 100 µM.

With `Cc1cccc(O)c1O`, the GI50 in experiment [1] was 27.3 µM; in experiment [2] it was 15.2 µM; in experiment [3] it was 38.1 µM. For the same compound, the concentration for total growth inhibition (TGI) was 64.3 µM in experiment [1], 46.2 µM in experiment [2] and 75.8 µM in experiment [3]. Further, the CC50 in experiment [1] and in experiment [3] was more than 100 µM throughout.

As for `Cc1cc2oc(=O)cc(O)c2cc1C`, in experiment [1], the 50% growth inhibitory concentration (GI50) came out at 82.3 µM, the TGI was more than 100 µM and the CC50 was more than 100 µM. In experiment [2], the GI50 amounted to 80.5 µM, the LC50 (concentration giving 50% net cell kill) was more than 100 µM and the TGI is more than 100 µM. For the same compound, in experiment [3], the concentration for 50% growth inhibition (GI50) is more than 100 µM, the TGI is more than 100 µM and the CC50 was more than 100 µM.

Regarding `O=c1cc(O)c2cc(Cl)ccc2o1`, in experiment [1], the 50% growth inhibitory concentration (GI50) amounted to 83.3 µM, the total growth inhibition concentration (TGI) is more than 100 µM and the CC50 was more than 100 µM. Further, in experiment [2], the concentration for 50% growth inhibition (GI50) stood at 88.7 µM, the LC50 (concentration giving 50% net cell kill) is more than 100 µM and the TGI is more than 100 µM. Besides, in experiment [3], the GI50 is more than 100 µM, the total growth inhibition concentration (TGI) was more than 100 µM and the CC50 is more than 100 µM.

Source of the values: ChEMBL document CHEMBL3872281, “A one-pot laccase-catalysed synthesis of coumestan derivatives and their anticancer activity” (Bioorg Med Chem, 2017).
